Test results: US20040253278A1, “Breath Freshening and Oral Cleansing Product Using Carvacrol” (priority 2002, published 2004)
Values after ≈ are worked out from the molar mass of the structure shown.

Assays:
Type in all cases: cell-based
Streptococcus mutans [1] = experiment: MIC (minimum inhibitory concentration), 96 well microtiter serial dilution; conditions: 48 h
Protocol: (§1) In vitro tests were conducted with a gram positive supragingival plaque bacterium, Streptococcus mutans. In addition, two subgingival plaque bacteria associated with oral malodor were tested, Porphyromonas gingivalis and Fusobacterium nucleatum. The MIC (Minimum Inhibitory Concentrations) study protocol is as follows. Chlorhexidine was used as a positive control and sterile water was used as a negative control. Carvacrol was suspended in 10% methanol with 3.8% Tween 80. […] 96 well microtiter plates were used for this study. Each well contained 5×10^5 colony forming units/ml of bacteria, serially diluted agents and bacterial growth medium. All bacterial cultures were incubated at 37° C. and stationary. Bacterial growth was estimated spectrophotometrically at 660 nm, after 48 hours. The MIC for each test bacteria was defined as the minimum concentration of test compound limiting turbidity to […].

Porphyromonas gingivalis [2] = experiment: as above; conditions: 48 h
Protocol: as §1

Fusobacterium nucleatum [3] = experiment: as above; conditions: 48 h
Protocol: as §1

Streptococcus mutans [4] = experiment: MBC (minimum bactericidal concentration), plating on blood agar; conditions: 48 h
Protocol: (§2) The MBC (Minimum bactericidal concentrations) were determined using the 96 well microtiter plate serial dilutions as described above for MIC studies. Serial dilution of cultures in wells showing no visible growth were performed and 10 microliters of culture were plated in triplicate on blood agar plates. Viable colonies were scored after incubation of the plates for 48 hours at 37° C. For each test bacterium, the number of CFU/ml were determined in the initial inoculum. The MBC was defined as the lowest concentration of a test compound that killed at least 99.9% of the cells present in the initial inoculum.

Porphyromonas gingivalis [5] = experiment: as above; conditions: 48 h
Protocol: as §2

Fusobacterium nucleatum [6] = experiment: as above; conditions: 48 h
Protocol: as §2

both bacteria [7] = experiment: MIC of positive control, bacteria not named; conditions: "for both bacteria"
Protocol: as §1

both bacteria [8] = experiment: MBC of positive control, bacteria not named
Protocol: as §2

Compound	MIC (Streptococcus mutans [1]) [µg/mL]	MIC (Porphyromonas gingivalis [2]) [µg/mL]	MIC (Fusobacterium nucleatum [3]) [µg/mL]	MBC (Streptococcus mutans [4]) [µg/mL]	MBC (Porphyromonas gingivalis [5]) [µg/mL]	MBC (Fusobacterium nucleatum [6]) [µg/mL]	MIC (both bacteria [7]) [µg/mL]	MBC (both bacteria [8]) [µg/mL]
Cc1ccc(C(C)C)cc1O [carvacrol]	250 (≈ 1660 µM)	125 (≈ 832 µM)	125 (≈ 832 µM)	125 (≈ 832 µM)	125 (≈ 832 µM)	125 (≈ 832 µM)		
[H]/N=C(\N/C(=N/[H])NCCCCCCNC(=N)NC(=N)Nc1ccc(Cl)cc1)Nc1ccc(Cl)cc1 [Cholorhexidine, Chlorhexidine]							1.25	1.25
